Molecular target: T1, hP2X3 (Homo sapiens, UniProt P56373)
T1 construct: host or cells: 1321N1 cells
T1 sequence (P56373 1-397): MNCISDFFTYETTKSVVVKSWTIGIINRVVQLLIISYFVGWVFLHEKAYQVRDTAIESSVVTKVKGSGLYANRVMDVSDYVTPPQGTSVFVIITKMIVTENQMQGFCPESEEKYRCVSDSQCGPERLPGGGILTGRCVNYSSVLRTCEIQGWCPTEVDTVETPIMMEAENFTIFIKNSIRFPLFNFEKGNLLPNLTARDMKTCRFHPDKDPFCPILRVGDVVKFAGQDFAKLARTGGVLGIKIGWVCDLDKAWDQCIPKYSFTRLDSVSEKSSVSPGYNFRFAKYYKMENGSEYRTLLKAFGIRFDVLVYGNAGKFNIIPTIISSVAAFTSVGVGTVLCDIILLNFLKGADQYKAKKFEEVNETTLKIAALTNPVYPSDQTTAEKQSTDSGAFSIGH
Experiment: FLIPR calcium flux assay, antagonistic activity against hP2X3 receptor
Type: cell-based
Settings: 1321N1/hP2X3 cells, agonist α,β-meATP 500 nM
Method: (§1) The compounds were screened for antagonistic activity against hP2X3 and hP2X2/3 receptors (changes in calcium flux signals represent the effect of the compounds on ion channels) by an FLIPR assay.
(§2) 1321N1 cells (adherent cells) stably transfected with hP2X3 and hP2X2/3 receptors were digested, centrifuged, resuspended in a plating medium (DMEM+10% DFBS) and counted, adjusted to 2×10^5 cells/mL. The cells were seeded in a 384-well assay plate at 50 μL/well, and incubated in an incubator at 37° C. with 5% CO2 for 16-24 h. Test compounds (20 mM DMSO stock solution) that were 180 times the desired concentration were prepared with DMSO, and added to a 384-well compound plate at 500 nL/well. Then, each well was supplemented with 30 μL of FLIPR buffer (lx HBSS containing 1.26 mM Ca^2++2 mM CaCl2)+20 mM HEPES), and the mixture was shaken for 20-40 min to be mixed well. The agonist α,β-meATP (final concentration of 500 nM for hP2X3 cells and final concentration of 1000 nM for hP2X2/3 cells) that was 3 times the desired concentration was prepared with an FLIPR buffer, and added to another 384-well compound plate at 35 μL/well. The cell plate in which cells had been plated and cultured for 16-24 h was taken out, and the cell supernatant was removed by pipetting. 30 μL of dye (FLIPR® calcium 4 assay kit, diluted with an FLIPR buffer) was added to each well, and the plate was incubated for 1 h. 15 μL of the compound was added to each well containing cells (dosing using an FLIPR instrument), and after 15 min, 22.5 μL of agonist was added to each well and the fluorescent signal was detected (excitation wavelength: 470-495 nm, emission wavelength: 515-575 nm). With the difference between the peak and the trough of the signal taken as the basic data, the data of the highest concentration of the positive drug taken as the 100% inhibition rate, and the data of DMSO taken as the 0% inhibition rate, the inhibition effect curves of the compounds were fitted on the software Graphpad Prism 6 and IC50 values were calculated.

Structure (SMILES) | IC50 [nM]
CC(=O)N1CCO[C@@H](Cn2c(-c3c(F)cc(N4CCCC4=O)cc3F)nc3cc(C(F)F)ccc32)C1 [Compound 5, (S)-1-(4-(1-((4-acetylmorpholin-2-yl)methyl)-5-(difluoromethyl)-1H-benzo[d]imidazol-2-yl)-3,5-difluorophenyl)pyrrolidin-2-one] | 100
CNC(=O)c1cc(F)c(-c2nc3cc(C)cnc3n2C[C@H]2CN(C(=O)OC)CCO2)c(F)c1 [Compound 6, Methyl (S)-2-((2-(2,6-difluoro-4-(methylcarbamoyl)phenyl)-6-methyl-3H-imidazo[4,5-b]pyridin-3-yl)methyl)morpholine-4-carboxylate] | > 10000
CNC(=O)c1cc(F)c(-c2nc3nc(C)ccc3n2C[C@H]2CN(C(=O)OC)CCO2)c(F)c1 [Compound 7, Methyl (S)-2-((2-(2,6-difluoro-4-(methylcarbamoyl)phenyl)-5-methyl-1H-imidazo[4,5-b]pyridin-1-yl)methyl)morpholine-4-carboxylate] | 5840
CNC(=O)c1cc(F)c(-c2nc3cc(C)ncc3n2C[C@H]2CN(C(=O)OC)CCO2)c(F)c1 [Compound 8, Methyl (S)-2-((2-(2,6-difluoro-4-(methylcarbamoyl)phenyl)-6-methyl-3H-imidazo[4,5-c]pyridin-3-yl)methyl)morpholine-4-carboxylate] | > 10000
CC(=O)N1CCO[C@@H](Cn2c(-c3c(F)cc(N4CCCC4=O)cc3Cl)nc3cc(C)c(F)cc32)C1 [Compound 11, (S)-1-(4-(1-((4-acetylmorpholin-2-yl)methyl)-6-fluoro-5-methyl-1H-benzo[d]imidazol-2-yl)-3-chloro-5-fluorophenyl)pyrrolidin-2-one] | 79.4

Continued, values first:

IC50 [nM] | Structure (SMILES)
87.7 | CC(=O)N1CCO[C@@H](Cn2c(-c3c(F)cc(N4CCCC4=O)cc3Cl)nc3cc(Cl)c(F)cc32)C1 [Compound 12, (S)-1-(4-(1-((4-acetylmorpholin-2-yl)methyl)-5-chloro-6-fluoro-1H-benzo[d]imidazol-2-yl)-3-chloro-5-fluorophenyl)pyrrolidin-2-one]
766 | CC(=O)N1CCO[C@@H](Cn2c(-c3c(F)cc(N4CCCC4=O)cc3F)nc3cc(Cl)cc(F)c32)C1 [Compound 13, (S)-1-(4-(1-((4-acetylmorpholin-2-yl)methyl)-5-chloro-7-fluoro-1H-benzo[d]imidazol-2-yl)-3,5-difluorophenyl)pyrrolidin-2-one]
85.1 | Cc1ccc2c(c1)nc(-c1c(F)cc(N3CCCC3=O)cc1Cl)n2C[C@H]1CN(C(=O)C2CC2)CCO1 [Compound 15, (S)-1-(3-chloro-4-(1-((4-(cyclopropylcarbonyl)morpholin-2-yl)methyl)-5-methyl-1H-benzo[d]imidazol-2-yl)-5-fluorophenyl)pyrrolidin-2-one]
70.5 | Cc1ccc2c(c1)nc(-c1c(F)cc(N3CCCC3=O)cc1Cl)n2C[C@H]1CN(C(=O)CC(F)(F)F)CCO1 [Compound 16, (S)-1-(3-chloro-5-fluoro-4-(5-methyl-1-((4-(3,3,3-trifluoropropionyl)morpholin-2-yl)methyl)-1H-benzo[d]imidazol-2-yl)phenyl)pyrrolidin-2-one]
45.3 | CCC(=O)N1CCO[C@@H](Cn2c(-c3c(Cl)cc4c(c3F)OCC(=O)N4)nc3cc(C)ccc32)C1 [Compound 17, (S)-6-chloro-8-fluoro-7-(5-methyl-1-((4-propionylmorpholin-2-yl)methyl)-1H-benzo[d]imidazol-2-yl)-2H-benzo[b][1,4]oxazin-3(4H)-one]

Tested on: not listed separately
Experiment: In vitro metabolic stability in human hepatocytes
Type: in vitro ADME
Settings: human hepatocytes 1×10^6 cells/mL, 37° C., up to 120 min; read-out: Intrinsic clearance (uL/min/10^6 cells)
Method: The concentrations of the test compounds in the reaction system were determined by LC/MS/MS, so that the intrinsic clearance of the test compounds was calculated, and the in vitro metabolic stability in human hepatocytes was evaluated.
247.5 μL of a mixed solution of human hepatocytes at 1×10^6 cells/mL (purchased from BioreclamationIVT, Cat. No. S01205) and 2.5 μL of 100 μM test compound or positive control was added to a plate to initiate the reaction. The plate was incubated at 37° C. and 600 rpm. 20 μL of incubation system was transferred to a stop plate at 0.5 min, 5 min, 15 min, 30 min, 45 min, 60 min, 80 min, 100 min and 120 min. Then, the mixture was vortexed for 2 min to be mixed well. The stop plate was centrifuged at 4000 rpm for 20 min. 40 μL of supernatant of each compound was transferred to a 96-well sample template, after which 160 μL of pure water was added to dilute the samples.
The resulting samples were quantified from ion chromatogram. The residual rate was calculated from the peak area of the test compound or the positive control. Slope k was determined by linear regression of the […] of residual rates versus incubation time using Microsoft Excel.
Intrinsic clearance (in vitro CLint, μL/min/10^6 cells) was calculated from the slope value according to the following equation:
V=incubation volume (0.25 mL);
N=number of cells per well (0.25×10^6 cells)

hepatocyte CLint at 1 μM [µL/min/1e6 cells] | Structure (SMILES)
4.1 | CCC(=O)N1CCO[C@@H](Cn2c(-c3c(Cl)cc4c(c3F)OCC(=O)N4)nc3cc(C)ccc32)C1 [Compound 17, (S)-6-chloro-8-fluoro-7-(5-methyl-1-((4-propionylmorpholin-2-yl)methyl)-1H-benzo[d]imidazol-2-yl)-2H-benzo[b][1,4]oxazin-3(4H)-one]

Molecular target: T2, hP2X2/3 (Homo sapiens, UniProt P56373+Q9UBL9)
T2 construct: host or cells: 1321N1 cells
T2 sequence (Q9UBL9 1-471): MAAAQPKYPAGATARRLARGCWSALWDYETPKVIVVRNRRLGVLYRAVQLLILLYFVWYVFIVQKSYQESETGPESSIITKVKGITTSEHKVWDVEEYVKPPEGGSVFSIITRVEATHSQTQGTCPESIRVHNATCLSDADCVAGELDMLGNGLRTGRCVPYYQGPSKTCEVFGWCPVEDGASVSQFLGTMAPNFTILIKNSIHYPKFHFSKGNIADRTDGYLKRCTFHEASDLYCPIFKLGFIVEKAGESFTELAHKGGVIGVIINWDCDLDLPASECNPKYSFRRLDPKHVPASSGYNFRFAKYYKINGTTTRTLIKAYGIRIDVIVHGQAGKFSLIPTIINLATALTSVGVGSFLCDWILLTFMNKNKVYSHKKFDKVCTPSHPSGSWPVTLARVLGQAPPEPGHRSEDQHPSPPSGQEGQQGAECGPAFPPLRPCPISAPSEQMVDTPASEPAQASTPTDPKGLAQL
T2 sequence (P56373 1-397): T1 sequence (P56373 1-397)
Experiment: FLIPR calcium flux assay, antagonistic activity against hP2X2/3 receptor
Type: cell-based
Settings: 1321N1/hP2X2/3 cells, agonist α,β-meATP 1000 nM
Method: as §1, §2

IC50 [µM] | Structure (SMILES)
3.5 | CCC(=O)N1CCO[C@@H](Cn2c(-c3c(Cl)cc4c(c3F)OCC(=O)N4)nc3cc(C)ccc32)C1 [Compound 17, (S)-6-chloro-8-fluoro-7-(5-methyl-1-((4-propionylmorpholin-2-yl)methyl)-1H-benzo[d]imidazol-2-yl)-2H-benzo[b][1,4]oxazin-3(4H)-one]

— patent publication US20230250095A1, “BENZIMIDAZOLE DERIVATIVES, PREPARATION METHOD THEREFOR AND MEDICAL USE THEREOF” (TUOJIE BIOTECH(SHANGHAI) CO., LTD., priority 2020, published 2023)
